Experimental data from paper PMC6646333 (Nature Communications, 2019).
Converted amounts (≈) assume the structure as drawn.

What was measured:
E. faecalis TH4126 = test: MIC, broth microdilution, E. faecalis TH4126; type: cell-based, Enterococcus faecalis; settings: for MIC, E. faecalis TH4126: broth microdilution, 0.01% polysorbate 80
Method: (§1) MIC[18] was tested by broth microdilution according to CLSI guidelines. The state of all teixobactin analogs is amorphous, and the compounds are in the salt form of trifluoroacetates. Analogs were stored in DMSO in the concentration of 10 mg/ml. The test medium for most species of bacteria was cation adjusted Mueller–Hinton Broth containing 0.01% polysorbate 80 to prevent analogs binding to plastic surfaces. […] For the test of Streptococci, MHB contains 3% lysed horse blood (Cleveland Scientific, Bath, OH). The concentration of cell was ~5 × 10^5 cells ml^−1. […] Besides the standard strains from ATCC, all the clinical isolates are from 302 hospital. The assay was done three times to confirm results (n = 3).

MRSA BAA-1695 = test: MIC, broth microdilution, MRSA BAA-1695; type: cell-based, Staphylococcus aureus; settings: for MIC, MRSA BAA-1695: broth microdilution, 0.01% polysorbate 80
Method: as §1

MRSA TH4115 = test: MIC, broth microdilution, MRSA TH4115; type: cell-based, Staphylococcus aureus; settings: for MIC, MRSA TH4115: broth microdilution, 0.01% polysorbate 80
Method: as §1

E. faecalis ATCC29212 = test: MIC, broth microdilution, E. faecalis ATCC29212; type: cell-based, Enterococcus faecalis; settings: for MIC, E. faecalis ATCC29212: broth microdilution, 0.01% polysorbate 80
Method: as §1

S. aureus TH4112 = test: MIC, broth microdilution, S. aureus TH4112; type: cell-based, Staphylococcus aureus; settings: for MIC, S. aureus TH4112: broth microdilution, 0.01% polysorbate 80
Method: as §1

VRE TH4937 = test: MIC, broth microdilution, VRE TH4937; type: cell-based, vancomycin resistant Enterococcus faecalis; settings: for MIC, VRE TH4937: broth microdilution, 0.01% polysorbate 80
Method: as §1

E. faecalis TH4132 = test: MIC, broth microdilution, E. faecalis TH4132; type: cell-based, Enterococcus faecalis; settings: for MIC, E. faecalis TH4132: broth microdilution, 0.01% polysorbate 80
Method: as §1

E. faecalis TH4130 = test: MIC, broth microdilution, E. faecalis TH4130; type: cell-based, Enterococcus faecalis; settings: for MIC, E. faecalis TH4130: broth microdilution, 0.01% polysorbate 80
Method: as §1

VRE TH4939 = test: MIC, broth microdilution, VRE TH4939; type: cell-based, vancomycin resistant Enterococcus faecalis; settings: for MIC, VRE TH4939: broth microdilution, 0.01% polysorbate 80
Method: as §1

S. aureus ATCC29213 = test: MIC, broth microdilution, S. aureus ATCC29213; type: cell-based; settings: Staphylococcus aureus, broth microdilution (CLSI), MHB + 0.01% polysorbate 80, five independent experiments ± s.d. (n = 5)
Method: as §1

MRSA ATCC33591 = test: MIC, broth microdilution, MRSA ATCC33591; type: cell-based; settings: Staphylococcus aureus; broth microdilution (CLSI), MHB + 0.01% polysorbate 80; five independent experiments ± s.d. (n = 5)
Method: as §1

MRSA ATCC 33591 = test: Neutropenic mouse thigh infection model; settings: 50 mg /kg i.v., 2 h post infection
S. pneumoniae D39 = test: Mouse septicemia protection model; settings: for survival number: 5 mg/kg i.v., 6 mice per group
MRSA = settings: ref J Med Chem, 2018, 61, 2009; cited from earlier work
Text: page 6: Reply: Thanks for the reviewer’s kind comments. […] (please see the reference 34). In the paper published in Scientific Reports, they proposed that two teixobactin bind pyrophosphate-MurNAc and glutamic acid residue of one Lipid II respectively. Undeniably, this is an important discovery. Its structure model also explains experimental obervations that the pyrophosphate-MurNAc moiety is the minimal motif for binding. We selected the similar truncated lipid II i ...

[1] = Enterococcus, VRE, broth microdilution (CLSI), MHB + 0.01% polysorbate 80, 37 °C, 16–20 h, n = 3

CC1(C)S[C@@H]2[C@H](NC(=O)[C@H](N)c3ccccc3)C(=O)N2[C@H]1C(=O)O [Ampicillin]
MIC (E. faecalis TH4126; Enterococcus faecalis, TH4126, broth microdilution (CLSI), MHB + 0.01% polysorbate 80, 37 °C, 16–20 h, n = 3): > 32 µg/mL
MIC, E. faecalis TH4126 (E. faecalis TH4126; replicate 1 (Source Data)): >32 µg/mL
MIC, E. faecalis TH4126 (E. faecalis TH4126; replicate 2 (Source Data)): >32 µg/mL
MIC, E. faecalis TH4126 (E. faecalis TH4126; replicate 3 (Source Data)): >32 µg/mL
MIC (MRSA BAA-1695; Staphylococcus aureus, broth microdilution (CLSI), MHB + 0.01% polysorbate 80, 37 °C, 16–20 h, n = 3): > 32 µg/mL
MIC, MRSA BAA-1695 (MRSA BAA-1695; replicate 1 (Source Data)): >32 µg/mL
MIC, MRSA BAA-1695 (MRSA BAA-1695; replicate 2 (Source Data)): >32 µg/mL
MIC, MRSA BAA-1695 (MRSA BAA-1695; replicate 3 (Source Data)): >32 µg/mL
MIC (MRSA TH4115; Staphylococcus aureus, MRSA, broth microdilution (CLSI), MHB + 0.01% polysorbate 80, 37 °C, 16–20 h, n = 3): 32 µg/mL
MIC, MRSA TH4115 (MRSA TH4115; replicate 1 (Source Data)): 32 µg/mL (≈ 91.6 µM)
MIC, MRSA TH4115 (MRSA TH4115; replicate 2 (Source Data)): 32 µg/mL (≈ 91.6 µM)
MIC, MRSA TH4115 (MRSA TH4115; replicate 3 (Source Data)): 32 µg/mL (≈ 91.6 µM)
MIC (E. faecalis ATCC29212; Enterococcus faecalis, ATCC29212, broth microdilution (CLSI), MHB + 0.01% polysorbate 80, 37 °C, 16–20 h, n = 3): 1 µg/mL
MIC, E. faecalis ATCC29212 (E. faecalis ATCC29212; replicate 1 (Source Data)): 1 µg/mL (≈ 2.86 µM)
MIC, E. faecalis ATCC29212 (E. faecalis ATCC29212; replicate 2 (Source Data)): 1 µg/mL (≈ 2.86 µM)
MIC, E. faecalis ATCC29212 (E. faecalis ATCC29212; replicate 3 (Source Data)): 1 µg/mL (≈ 2.86 µM)
MIC (S. aureus TH4112; Staphylococcus aureus, TH4112, broth microdilution (CLSI), MHB + 0.01% polysorbate 80, 37 °C, 16–20 h, n = 3): 0.5 µg/mL
MIC, S. aureus TH4112 (S. aureus TH4112; replicate 1 (Source Data)): 0.5 µg/mL (≈ 1.43 µM)
MIC, S. aureus TH4112 (S. aureus TH4112; replicate 2 (Source Data)): 0.5 µg/mL (≈ 1.43 µM)
MIC, S. aureus TH4112 (S. aureus TH4112; replicate 3 (Source Data)): 0.5 µg/mL (≈ 1.43 µM)
MIC (VRE TH4937; [1]): > 32 µg/mL
MIC, VRE TH4937 (VRE TH4937; replicate 1 (Source Data)): >32 µg/mL
MIC, VRE TH4937 (VRE TH4937; replicate 2 (Source Data)): >32 µg/mL
MIC, VRE TH4937 (VRE TH4937; replicate 3 (Source Data)): >32 µg/mL
MIC (E. faecalis TH4132; Enterococcus faecalis, TH4132, broth microdilution (CLSI), MHB + 0.01% polysorbate 80, 37 °C, 16–20 h, n = 3): 1 µg/mL
MIC, E. faecalis TH4132 (E. faecalis TH4132; replicate 1 (Source Data)): 1 µg/mL (≈ 2.86 µM)
MIC, E. faecalis TH4132 (E. faecalis TH4132; replicate 2 (Source Data)): 1 µg/mL (≈ 2.86 µM)
MIC, E. faecalis TH4132 (E. faecalis TH4132; replicate 3 (Source Data)): 1 µg/mL (≈ 2.86 µM)
MIC (E. faecalis TH4130; Enterococcus faecalis, TH4130, broth microdilution (CLSI), MHB + 0.01% polysorbate 80, 37 °C, 16–20 h, n = 3): 16 µg/mL
MIC, E. faecalis TH4130 (E. faecalis TH4130; replicate 1 (Source Data)): 16 µg/mL (≈ 45.8 µM)
MIC, E. faecalis TH4130 (E. faecalis TH4130; replicate 2 (Source Data)): 16 µg/mL (≈ 45.8 µM)
MIC, E. faecalis TH4130 (E. faecalis TH4130; replicate 3 (Source Data)): 16 µg/mL (≈ 45.8 µM)
MIC (VRE TH4939; [1]): > 32 µg/mL
MIC, VRE TH4939 (VRE TH4939; replicate 1 (Source Data)): >32 µg/mL
MIC, VRE TH4939 (VRE TH4939; replicate 2 (Source Data)): >32 µg/mL
MIC, VRE TH4939 (VRE TH4939; replicate 3 (Source Data)): >32 µg/mL
MIC (S. aureus ATCC29213): 2 µg/mL
MIC (MRSA ATCC33591): > 16 µg/mL

CN[C@H](CC(C)C)C(=O)N[C@H]1C(=O)N[C@@H](CC(N)=O)C(=O)N[C@H]2C(=O)N[C@H]3C(=O)N[C@H](C(=O)N[C@H](C(=O)O)c4cc(O)cc(O)c4-c4cc3ccc4O)[C@H](O)c3ccc(c(Cl)c3)Oc3cc2cc(c3O[C@@H]2O[C@H](CO)[C@@H](O)[C@H](O)[C@H]2O[C@H]2C[C@](C)(N)[C@H](O)[C@H](C)O2)Oc2ccc(cc2Cl)[C@H]1O [Vancomycin]
Log C.F.U. / mouse thigh (MRSA ATCC 33591; mouse 1): 3.903 Log C.F.U. / mouse thigh
Log C.F.U. / mouse thigh (MRSA ATCC 33591; mouse 2): 3.176 Log C.F.U. / mouse thigh
Log C.F.U. / mouse thigh (MRSA ATCC 33591; mouse 3): 3.748 Log C.F.U. / mouse thigh
survival number (S. pneumoniae D39; 24 h post-infection): 6
survival number (S. pneumoniae D39; 36 h post-infection): 6
survival number (S. pneumoniae D39; 48 h post-infection): 6
Survival rate 48 h after infection (S. pneumoniae D39; single dose 5 mg kg^−1 i.v., 1 h post infection, positive control, six female mice per group): 100%

Arg10-teixobactin
Loss of potency compared with teixobactin (MRSA): more than 4 fold
MIC against MRSA (MRSA): 2 µg/mL
